Results as given in paper PMC10318456, “Selective inhibitors of the PSEN1–gamma-secretase complex” (The Journal of Biological Chemistry, 2023).

How the values were obtained:
[1] = target: T1, PSEN1 T147A–APH1A γ-secretase complex (Homo sapiens, UniProt P49768, T147A); test: Aβ40 secretion, MEF cell pool restored with PSEN1 T147A–APH1A; format: cell-based; conditions: decimal comma
T1 construct: expressed in transfected cells; host or cells: Psen1/2 double KO/Aph1ABC triple KO MEFs, pools without clonal selection
Experimental: (§1) We turned to experimental site–directed mutagenesis and selected a series of amino acids (Fig. 3) in the entrance channel for mutation to alanine. […] More importantly, they were all enzymatically active as shown by the secretion of Aβ40 in the supernatants of the cell cultures (Fig. 3B).
(§2) Conditional Psen1/2 double KO mice were crossed with conditional Aph1ABC triple KO mice ([29], [52], [58], [59]). At embryonic day 7.5, embryos were dissected and dissociated, and cells were plated in the presence of Dulbecco’s modified Eagle’s medium (DMEM)/F12 50% fetal calf serum (FCS) (Invitrogen). Primary MEFs were immortalized by transduction with LargeT antigen. Psen1/2 double KO/Aph1ABC triple KO MEFs were generated by transduction with a Cre-GFP–expressing adenoviral vector, and GFP-positive MEFs were sorted by fluorescence-activated cell sorting analysis. Psen1/2 Aph1ABC-deficient MEFs were maintained in DMEM/f12 10% FCS. To rescue γ-secretase expression, Psen1/2 double KO/Aph1ABC triple KO MEFs were transduced using Murine Stem Cell Virus retroviral vector system (pMSCV) viral vectors (Clontech) containing the human coding sequences of the different PSEN and APH1 homologs and the zeocin selection marker. An Internal Ribosome Entry Site sequence was cloned between the coding sequences for PSEN and APH1 to ensure co-expression of both proteins. Stable transfected cell lines were selected using 500-μg/ml zeocin (Invitrogen). Four different combinations were made: PSEN1 and APH1AL, PSEN1 and APH1B, PSEN2 and APH1AL, and PSEN2 and APH1B. These cell lines were transduced with pMSCV viral vectors (Clontech) expressing APP-C99-GFP-puromycin. […]
(§3) The number of plated cells and incubation times were determined in respect to linearity of Aβ peptide secretion, the dynamic range of Aβ peptide quantification in the medium, and sensitivity to dimethylsulfoxide (DMSO). […] The cell viability was assessed using the CellTiter-Glo Luminescent assay (Promega) that measures ATP production. […] We however measured five compounds at the Leuven site and noticed that absolute IC50 values were different (Fig. S2). […]

[2] = target: T2, PSEN1 T147A–APH1A γ-secretase complex (Homo sapiens, UniProt P49768+Q92542+Q96BI3+Q9NZ42, T147A); test: as above; format: cell-based; conditions: PSEN1 T147A (TM2)–APH1A cell pool; N = 3 to 4; mean (95% CI); decimal comma
T2 construct: expressed in transfected cells; host or cells: Psen1/2 double KO/Aph1ABC triple KO MEFs, pools without clonal selection
Experimental: as §1, §2, §3

IC50 ([1]; PSEN1 T147A (TM2)–APH1A cell pool, N = 3 to 4, mean (95% CI))	IC50 fold change to WT ([1]; PSEN1 T147A–APH1A cell pool)	IC50 [2]	SMILES
0.477 µM	2,826 fold		C[C@H](NC(=O)Cc1cc(F)cc(F)c1)C(=O)N[C@H](C(=O)OC(C)(C)C)c1ccccc1 [DAPT]
		0.852 µM	O=S(=O)(c1ccc(Cl)cc1)N1[C@H]2CC[C@@H]([C@H]1c1ccc(C(F)(F)F)cc1)[C@@H](O)C2 [(+)-9b]
